What was measured:
[1] = test system: Dermal fibroblasts
[2] = test system: keratinocytes; conditions: just-subconfluent keratinocyte cultures, 60 minutes' incubation; BM165 mAb 50 µg/mL, 10-mM EDTA
Method: Cells were grown in Keratinocyte Growth Medium (KGM) containing 0.15 mM CaCl2 and subcultured according to the manufacturer's instructions (Clonetics). For most immunocytochemical experiments, first- or second-passage cells were grown in glass or plastic chamber slides (Lab-Tek) or on glass cover slips to approximately 80 percent confluency. For large-scale collection, spent-media cells were grown in 150-cm^2 tissue culture dishes and fed three times per week with 15 mL fresh media.
Keratinocytes were grown to near confluence and either fixed immediately (FIGS. 4B and 4D) or washed with PBS and incubated with BM165 mAb (50 µg/mL) followed by 5-nm gold-conjugated secondary antibody prior to fixation (FIGS. 4A and 4C).
To further pursue these observations, just-subconfluent keratinocyte cultures were separately incubated with purified BM165 mAb for 10 and 60 minutes. After incubation, the cultures were photographed (FIGS. 5A-F). Purified mAbs in PBS, PBS alone, or 10-mM EDTA were incubated with keratinocytes in parallel. Parallel cultures were also incubated with anti-type-VII monoclonal IgG in PBS for the corresponding same length of time.

[3] = test system: secretion of kalinin

SMILES	rounding and detachment of dermal fibroblasts [1]	rounding and detachment of the keratinocytes [2]	secretion of kalinin into the medium [3]
O=C(O)CN(CCN(CC(=O)O)CC(=O)O)CC(=O)O [EDTA]	rounded and detached	extensive rounding and detachment	
COc1cc2c(c(OC)c1OC)-c1ccc(OC)c(=O)cc1[C@@H](NC(C)=O)CC2 [colchicine]			inhibited

From patent EP0675728B1, “PRODUCTS AND METHODS FOR IMPROVING KE[…] TO THE DERMIS” (STATE OF OREGON BY AND THROUGH OREGON STATE BOARD OF HIGHER …, priority 1992, dated 1994)
